Measured values from patent US6914045B2, “Glycopeptide antibiotics” (Wyeth Holdings Corporation, priority 2001, dated 2005).
≈ marks a conversion by molar mass, not a printed value.

Tests used:
[1] = anatomic pathology (histopathology of heart and kidney) in mice; format: in vivo; settings: CD-1 mice, 20 mg/kg intravenously daily for 9 days, necropsy day 10, microscopic histopathology
Description: Samples of tissues from necropsied mice were formalin-fixed, paraffin-embedded, sectioned, stained with hematoxylin and eosin, and examined microscopically. Histopathologic findings were recorded. These findings were subjectively graded on a scale corresponding to slight, mild, moderate, marked and severe as compared to untreated controls.

Escherichia coli = assay: in vitro antibacterial evaluation, MIC by broth dilution; format: cell-based; settings: 18 hours at 35° C.
How it was run: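 MIC is the lowest antibiotic concentration (tested 64-0.06 μg/mL) preventing growth of a 5×10^5 CFU/mL inoculum. Determined by broth dilution in Mueller-Hinton II medium following NCCLS standard M7-A2.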

Streptococcus sp. = assay: as above; format: cell-based; settings: broth dilution, 18 hours at 35° C.
How it was run: (§1)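 MIC, the lowest antibiotic concentration preventing growth, was read across 64-0.06 μg/mL with 5×10^5 CFU/mL inoculum. Method followed NCCLS M7-A2 broth dilution using Mueller-Hinton II; Gram-positive strains covered recent methicillin-, penicillin- and/or vancomycin-resistant clinical isolates.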

Enterococcus sp. = assay: as above; format: cell-based; settings: broth dilution, 18 hours at 35° C.
How it was run: as §1

Staphylococcus sp. = assay: as above; format: cell-based
How it was run: as §1

[2] = tested on: Staphylococcus aureus-SMITH (GC 4543); assay: acute lethal infection in mice; format: in vivo; settings: acute lethal infection, female CD-1 mice, intraperitoneal challenge, intravenous 30 min. after infection, 7 day survival
Description: Methods for in Vivo Antibacterial Evaluation
The therapeutic effects of glycopeptide antibiotics of Formula I are determined against acute lethal infections with S. aureus (strain Smith), a penicillin resistant strain of S. pneumoniae (strain GC 1894), and a vancomycin resistant strain of E. fecalis (strain GC 6189 and GC 2246). Female mice, CD-1 (Charles River Laboratories), 20+/−2 gm, are challenged by intraperitoneal injection of sufficient bacteria (suspended in /trypticase Soy Broth or hog gastric mucin) to kill non-treated controls within 24-48 hr. Antibacterial agents, contained in 0.2 mL of saline or 5% dextrose solution, are administered intravenously 30 min. after infection. Five mice are treated at each dose level. The 7 day survival ratios from 3 separate tests are pooled for calculation of median effective dose (ED50).

[3] = Enterococcus faecalis (ATCC 29212)
[4] = Enterococcus faecalis (GC 4552)
[5] = broth dilution, 18 hours at 35° C.
[6] = strain ATCC 29213; broth dilution, 18 hours at 35° C.
[7] = strain GC 1131; broth dilution, 18 hours at 35° C.
[8] = strain GC 4535; broth dilution, 18 hours at 35° C.
[9] = strain GC 4536; broth dilution, 18 hours at 35° C.

| SMILES | MIC Escherichia coli (GC 4559) (Escherichia coli) | MIC Escherichia coli (GC 4560) (Escherichia coli) | MIC Enterococcus faecalis (ATCC 29212) (Enterococcus sp.) | MIC Enterococcus faecalis (GC 2242) (Enterococcus sp.) | MIC Enterococcus faecalis (GC 4552) (Enterococcus sp.) | MIC Enterococcus faecalis (ATCC 29212) (Enterococcus sp.; [3]) | MIC Enterococcus faecalis (GC 4552) (Enterococcus sp.; [4]) | MIC Coagulase Negative Staphylococcus (GC 4537) (Staphylococcus sp.; [5]) | MIC Coagulase Negative Staphylococcus (GC 4538) (Staphylococcus sp.; [5]) | MIC Coagulase Negative Staphylococcus (GC 4547) (Staphylococcus sp.; [5]) | MIC Staphylococcus aureus (ATCC 29213) (Staphylococcus sp.; [6]) | MIC Staphylococcus aureus (GC 1131) (Staphylococcus sp.; [7]) | MIC Staphylococcus aureus (GC 4535) (Staphylococcus sp.; [8]) | MIC Staphylococcus aureus-SMITH (GC 4536) (Staphylococcus sp.; [9]) | median effective dose (ED50), Staphylococcus aureus-SMITH (GC 4543) [2] | further results |
| --- | --- | --- | --- | --- | --- | --- | --- | --- | --- | --- | --- | --- | --- | --- | --- | --- |
| CN=C1N(C)CC(C(O)C2NC(=O)C(Cc3ccc(OC4OC(CO)C(OC5OC6COC7(OC6C(O)C5O)C5CC6CC(C5)CC7C6)C(O)C4O)cc3)NC(=O)C(C(C)c3ccccc3)NC(=O)CNC(=O)C(CO)NC(=O)C(C(O)C3CN(C)C(=NC)N3C3OC(CO)C(O)C(O)C3O)NC2=O)N1C (stereo not drawn) [Example 81, Cyclo[glycyl-β-methylphenylalanyl-O-[4-O-[4,6-O-(2-adamantylidene)hexopyranosyl]hexopyranosyl]tyrosyl-3-[1,3-dimethyl-2-(methylimino)imidazolidin-4-yl]seryl-3-[3-hexopyranosyl-1-methyl-2-(methylimino)imidazolidin-4-yl]serylseryl]] | >128 µg/mL | 128 µg/mL (≈ 85.5 µM) | >128 µg/mL | >128 µg/mL | >128 µg/mL | – | – | – | – | – | – | – | – | – | – | Anatomical Pathology (Day 10), Heart [1]: 0; Anatomical Pathology (Day 10), Kidney [1]: 0; MIC Escherichia coli (ATCC 25922) (Escherichia coli): >128 µg/mL; MIC Streptococcus agalactiae (GC 4564) (Streptococcus sp.): 128 µg/mL (≈ 85.5 µM); MIC Streptococcus pneumoniae (ATCC 6301) (Streptococcus sp.): >128 µg/mL; MIC Streptococcus pneumoniae (GC 1894) (Streptococcus sp.): 128 µg/mL (≈ 85.5 µM); MIC Streptococcus pneumoniae (GC 4565) (Streptococcus sp.): >128 µg/mL; MIC Streptococcus pyogenes (GC 4563) (Streptococcus sp.): >128 µg/mL; MIC Enterococcus avium (GC 4558) (Enterococcus sp.): 128 µg/mL (≈ 85.5 µM); MIC Enterococcus faecalis (GC 2691) (Enterococcus sp.): >128 µg/mL; MIC Enterococcus faecalis (GC 3059) (Enterococcus sp.): >128 µg/mL; MIC Enterococcus faecalis (GC 4553) (Enterococcus sp.): 128 µg/mL (≈ 85.5 µM); MIC Enterococcus faecalis (GC 4554) (Enterococcus sp.): >128 µg/mL; MIC Enterococcus faecalis (GC 6189) (Enterococcus sp.): >128 µg/mL; MIC Enterococcus faecium (GC 2243) (Enterococcus sp.): >128 µg/mL; MIC Enterococcus faecium (GC 4556) (Enterococcus sp.): >128 µg/mL; MIC Enterococcus faecium (GC 4557) (Enterococcus sp.): 128 µg/mL (≈ 85.5 µM); MIC Staphylococcus haemolyticus (GC 4546) (Staphylococcus sp.; strain GC 4546; broth dilution, 18 hours at 35° C.): >128 µg/mL |
| CCCCCC(=O)OCC1OC(OC2C(CO)OC(Oc3ccc(CC4NC(=O)C(C(C)c5ccccc5)NC(=O)CNC(=O)C(CO)NC(=O)C(C(O)C5CNC(=N)N5C5OC(CO)C(O)C(O)C5O)NC(=O)C(C(O)C5CNC(=N)N5)NC4=O)cc3)C(O)C2O)C(O)C(O)C1O (stereo not drawn) [Example 95b, Cyclo[glycyl-β-methylphenylalanyl-O-[4-O-(6-O-hexanoylhexopyranosyl)hexopyranosyl]-tyrosyl-3-(2-iminoimidazolidin-4-yl)seryl-3-(3-hexopyranosyl-2-iminoimidazolidin-4-yl)-serylseryl]] | 64 µg/mL (≈ 45.9 µM) | <0.5 µg/mL | 4 µg/mL (≈ 2.87 µM) | 8 µg/mL (≈ 5.74 µM) | 8 µg/mL (≈ 5.74 µM) | 4 µg/mL (≈ 2.87 µM) | 8 µg/mL (≈ 5.74 µM) | 2 µg/mL (≈ 1.44 µM) | 1 µg/mL (≈ 0.718 µM) | 1 µg/mL (≈ 0.718 µM) | 1 µg/mL (≈ 0.718 µM) | 1 µg/mL (≈ 0.718 µM) | 2 µg/mL (≈ 1.44 µM) | 1 µg/mL (≈ 0.718 µM) | 4 mg/kg | MIC Enterococcus faecalis (GC 2242) (Enterococcus sp.; strain GC 2242): 8 µg/mL (≈ 5.74 µM); MIC Coagulase Negative Staphylococcus (GC 4537) (Staphylococcus sp.; strain GC 4537; broth dilution, 18 hours at 35° C.): 2 µg/mL (≈ 1.44 µM); MIC Coagulase Negative Staphylococcus (GC 4538) (Staphylococcus sp.; strain GC 4538; broth dilution, 18 hours at 35° C.): 1 µg/mL (≈ 0.718 µM); MIC Coagulase Negative Staphylococcus (GC 4547) (Staphylococcus sp.; strain GC 4547; broth dilution, 18 hours at 35° C.): 1 µg/mL (≈ 0.718 µM) |
| CCCCCCC(=O)OCC1OC(OC2C(CO)OC(Oc3ccc(CC4NC(=O)C(C(C)c5ccccc5)NC(=O)CNC(=O)C(CO)NC(=O)C(C(O)C5CNC(=N)N5C5OC(CO)C(O)C(O)C5O)NC(=O)C(C(O)C5CNC(=N)N5)NC4=O)cc3)C(O)C2O)C(O)C(O)C1O (stereo not drawn) [Example 97b, Cyclo[glycyl-β-methylphenylalanyl-O-[4-O-(6-O-heptanoylhexopyranosyl)hexopyranosyl]-tyrosyl-3-(2-iminoimidazolidin-4-yl)seryl-3-(3-hexopyranosyl-2-iminoimidazolidin-4-yl)-serylseryl]] | 32 µg/mL (≈ 22.7 µM) | 1 µg/mL (≈ 0.711 µM) | 4 µg/mL (≈ 2.84 µM) | 2 µg/mL (≈ 1.42 µM) | 4 µg/mL (≈ 2.84 µM) | 4 µg/mL (≈ 2.84 µM) | 4 µg/mL (≈ 2.84 µM) | 1 µg/mL (≈ 0.711 µM) | 1 µg/mL (≈ 0.711 µM) | 1 µg/mL (≈ 0.711 µM) | 1 µg/mL (≈ 0.711 µM) | 1 µg/mL (≈ 0.711 µM) | 1 µg/mL (≈ 0.711 µM) | 0.5 µg/mL (≈ 0.355 µM) | 8 mg/kg | MIC Enterococcus faecalis (GC 2242) (Enterococcus sp.; Enterococcus faecalis (GC 2242)): 2 µg/mL (≈ 1.42 µM); MIC Coagulase Negative Staphylococcus (GC 4537) (Staphylococcus sp.; broth dilution, 18 hours at 35° C.; strain GC 4537): 1 µg/mL (≈ 0.711 µM); MIC Coagulase Negative Staphylococcus (GC 4538) (Staphylococcus sp.; broth dilution, 18 hours at 35° C.; strain GC 4538): 1 µg/mL (≈ 0.711 µM); MIC Coagulase Negative Staphylococcus (GC 4547) (Staphylococcus sp.; broth dilution, 18 hours at 35° C.; strain GC 4547): 1 µg/mL (≈ 0.711 µM) |
